In brackets after ≈: the same amount, converted by molar mass. Where two headings read alike, the source gives them in different places.
Assays:
S. aureus SA0077 [1] = assay: microbe, parasite or virus in culture; conditions: Staphylococcus aureus
S. aureus SA0085 [2] = assay: microbe, parasite or virus in culture; conditions: Staphylococcus aureus
S. aureus SA0422 [3] = assay: microbe, parasite or virus in culture; conditions: Staphylococcus aureus
S. aureus SA0736 [4] = assay: microbe, parasite or virus in culture; conditions: Staphylococcus aureus
S. aureus ATCC 29213 [5] = assay: microbe, parasite or virus in culture; conditions: Staphylococcus aureus
S. aureus SA0077 [6] = system: S. aureus SA0077
S. aureus SA0085 [7] = system: S. aureus SA0085
S. aureus SA0422 [8] = system: S. aureus SA0422
S. aureus SA0736 [9] = system: S. aureus SA0736
S. aureus ATCC 29213 [10] = system: S. aureus ATCC 29213
[11] = ATCC29213, read-out: MIC values
[12] = SA0422, read-out: MIC values, Table S1: SA0422 DAP (derivative after 40 passages on daptomycin)
[13] = SA0736, read-out: MIC values, Table S1: SA0736 VAN (derivative after 40 passages on vancomycin)
[14] = ATCC29213, read-out: MIC values, Table S1: ATCC 29213 DAP (derivative after 40 passages on daptomycin)
[15] = SA0077, read-out: MIC values, Table S1: SA0077 Abf (passages on antibiotic-free media)
[16] = SA0077, read-out: MIC values, Table S1: SA0077 DAP (derivative after 40 passages on daptomycin)
[17] = SA0077, read-out: MIC values, Table S1: SA0077 VAN (derivative after 40 passages on vancomycin)

In the case of `CCC[C@@H]1C[C@@H](C(=O)N[C@@H]([C@H]2O[C@H](SC)[C@H](O)[C@@H](O)[C@H]2O)[C@H](C)Cl)N(C)C1` [Clindamycin], the MIC (S. aureus SA0077 [1]; SA0077, read-out: MIC values) is reported as > 64 µg/mL, the MIC (S. aureus SA0085 [2]; SA0085, read-out: MIC values) is reported as > 64 µg/mL and the MIC (S. aureus SA0422 [3]; SA0422, read-out: MIC values) is reported as 0.06 µg/mL (≈ 0.141 µM). The MIC (S. aureus SA0736 [4]; SA0736, read-out: MIC values) was 0.06 µg/mL (≈ 0.141 µM) and the MIC (S. aureus ATCC 29213 [5]; [11]) was 0.06 µg/mL (≈ 0.141 µM).

`CC(=O)O[C@H]1C[C@@]2(C)[C@@H](C[C@@H](O)[C@H]3[C@@]4(C)CC[C@@H](O)[C@@H](C)[C@@H]4CC[C@@]32C)/C1=C(\CCC=C(C)C)C(=O)O` [Fusidic acid] was tested, and the MIC (S. aureus SA0077 [1]; SA0077, read-out: MIC values) was 0.06 µg/mL (≈ 0.116 µM), the MIC (S. aureus SA0085 [2]; SA0085, read-out: MIC values) was 0.125 µg/mL (≈ 0.242 µM) and the MIC (S. aureus SA0422 [3]; SA0422, read-out: MIC values) was 0.125 µg/mL (≈ 0.242 µM). For the same compound, the MIC (S. aureus SA0422 [3]; [12]) was 0.06 µg/mL (≈ 0.116 µM), the MIC (S. aureus SA0422 [3]; SA0422, read-out: MIC values, Table S1: SA0422 VAN (derivative after 40 passages on vancomycin)) was 0.06 µg/mL (≈ 0.116 µM) and the MIC (S. aureus SA0736 [4]; SA0736, read-out: MIC values) was 0.06 µg/mL (≈ 0.116 µM). It also gave an MIC (S. aureus SA0736 [4]; [13]) of 0.125 µg/mL (≈ 0.242 µM), an MIC (S. aureus ATCC 29213 [5]; [11]) of 0.25 µg/mL (≈ 0.484 µM) and an MIC (S. aureus ATCC 29213 [5]; [14]) of 0.125 µg/mL (≈ 0.242 µM).

Work on `Cn1nnc(-c2ccc(-c3ccc(N4C[C@H](CO)OC4=O)cc3F)cn2)n1` [Tedizolid] yielded an MIC (S. aureus SA0077 [1]; SA0077, read-out: MIC values) of 0.25 µg/mL (≈ 0.675 µM), an MIC (S. aureus SA0077 [1]; [15]) of 0.125 µg/mL (≈ 0.338 µM) and an MIC (S. aureus SA0077 [1]; [16]) of 0.125 µg/mL (≈ 0.338 µM). The MIC (S. aureus SA0077 [1]; [17]) was 0.125 µg/mL (≈ 0.338 µM), the MIC (S. aureus SA0085 [2]; SA0085, read-out: MIC values) was 0.5 µg/mL (≈ 1.35 µM) and the MIC (S. aureus SA0085 [2]; SA0085, read-out: MIC values, Table S1: SA0085 VAN (derivative after 40 passages on vancomycin)) was 0.06 µg/mL (≈ 0.162 µM). For the same compound, the MIC (S. aureus SA0422 [3]; SA0422, read-out: MIC values) was 0.25 µg/mL (≈ 0.675 µM), the MIC (S. aureus SA0422 [3]; [12]) was 0.125 µg/mL (≈ 0.338 µM) and the MIC (S. aureus SA0736 [4]; SA0736, read-out: MIC values) was 0.125 µg/mL (≈ 0.338 µM). For the same compound, the MIC (S. aureus ATCC 29213 [5]; [11]) was 0.25 µg/mL (≈ 0.675 µM).

Work on teicoplanin [TEC] yielded an MIC (S. aureus SA0077 [6]; SA0077, selecting agent DAP, passage 20) of 0.25 µg/mL, an MIC (S. aureus SA0077 [6]; SA0077, selecting agent DAP, passage 40) of 0.25 µg/mL and an MIC (S. aureus SA0077 [6]; SA0077, selecting agent VAN, passage 0) of 0.25 µg/mL. The MIC (S. aureus SA0077 [6]; SA0077, selecting agent VAN, passage 5) was 8 µg/mL, the MIC (S. aureus SA0077 [6]; SA0077, selecting agent VAN, passage 20) was 8 µg/mL and the MIC (S. aureus SA0077 [6]; SA0077, selecting agent VAN, passage 40) was 8 µg/mL. The MIC values (S. aureus SA0077 [6]; Table S1: SA0077 Abf (passages on antibiotic-free media)) was “.125 µg/mL”, the MIC (S. aureus SA0085 [7]; SA0085, selecting agent DAP, passage 5) was 0.125 µg/mL and the MIC (S. aureus SA0085 [7]; SA0085, selecting agent DAP, passage 20) was 8 µg/mL. For the same compound, the MIC (S. aureus SA0085 [7]; SA0085, selecting agent DAP, passage 40) was 8 µg/mL, the MIC (S. aureus SA0085 [7]; SA0085, selecting agent VAN, passage 0) was 0.125 µg/mL and the MIC (S. aureus SA0085 [7]; SA0085, selecting agent VAN, passage 5) was 1 µg/mL. For the same compound, the MIC (S. aureus SA0085 [7]; SA0085, selecting agent VAN, passage 20) was 2 µg/mL, the MIC (S. aureus SA0085 [7]; SA0085, selecting agent VAN, passage 40) was 8 µg/mL and the MIC values (S. aureus SA0085 [7]; Table S1: SA0085 Abf (passages on antibiotic-free media)) was “.125 µg/mL”. The MIC (S. aureus SA0422 [8]; SA0422, selecting agent DAP, passage 5) was 0.25 µg/mL, the MIC (S. aureus SA0422 [8]; SA0422, selecting agent DAP, passage 20) was 1 µg/mL and the MIC (S. aureus SA0422 [8]; SA0422, selecting agent DAP, passage 40) was 1 µg/mL. For the same compound, the MIC (S. aureus SA0422 [8]; SA0422, selecting agent VAN, passage 0) was 0.5 µg/mL, the MIC (S. aureus SA0422 [8]; SA0422, selecting agent VAN, passage 5) was 2 µg/mL and the MIC (S. aureus SA0422 [8]; SA0422, selecting agent VAN, passage 20) was 4 µg/mL. The MIC (S. aureus SA0422 [8]; SA0422, selecting agent VAN, passage 40) was 4 µg/mL, the MIC (S. aureus SA0736 [9]; SA0736, selecting agent DAP, passage 5) was 0.25 µg/mL and the MIC (S. aureus SA0736 [9]; SA0736, selecting agent DAP, passage 20) was 8 µg/mL. It also gave an MIC (S. aureus SA0736 [9]; SA0736, selecting agent DAP, passage 40W (white colonies)) of 8 µg/mL, an MIC (S. aureus SA0736 [9]; SA0736, selecting agent DAP, passage 40Y (yellow colonies)) of 8 µg/mL and an MIC (S. aureus SA0736 [9]; SA0736, selecting agent VAN, passage 0) of 0.25 µg/mL. It also gave an MIC (S. aureus SA0736 [9]; SA0736, selecting agent VAN, passage 5) of 4 µg/mL, an MIC (S. aureus SA0736 [9]; SA0736, selecting agent VAN, passage 40) of 8 µg/mL and an MIC values (S. aureus SA0736 [9]; Table S1: SA0736 DAP-W (40 passages on daptomycin, white colonies)) of 8 µg/mL. For the same compound, the MIC values (S. aureus SA0736 [9]; Table S1: SA0736 DAP-Y (40 passages on daptomycin, yellow colonies)) was 8 µg/mL, the MIC (S. aureus ATCC 29213 [10]; ATCC 29213, selecting agent DAP, passage 5) was 0.5 µg/mL and the MIC (S. aureus ATCC 29213 [10]; ATCC 29213, selecting agent DAP, passage 20) was 2 µg/mL. It also gave an MIC (S. aureus ATCC 29213 [10]; ATCC 29213, selecting agent DAP, passage 40) of 4 µg/mL, an MIC (S. aureus ATCC 29213 [10]; ATCC 29213, selecting agent VAN, passage 0) of 0.06 µg/mL and an MIC (S. aureus ATCC 29213 [10]; ATCC 29213, selecting agent VAN, passage 5) of 0.06 µg/mL. For the same compound, the MIC (S. aureus ATCC 29213 [10]; ATCC 29213, selecting agent VAN, passage 20) was 2 µg/mL, the MIC (S. aureus ATCC 29213 [10]; ATCC 29213, selecting agent VAN, passage 40) was 8 µg/mL and the MIC values (S. aureus RN4220; Table S1: RN4220 WT) was 0.25 µg/mL. The MIC values (S. aureus RN4220; Table S1: RN4220 ∆ (strain with deletion in SACOL1927)) was 0.25 µg/mL.

Compound `COc1c(N2C[C@@H]3CCCN[C@@H]3C2)c(F)cc2c(=O)c(C(=O)O)cn(C3CC3)c12` [Moxifloxacin] has an MIC (S. aureus SA0077 [1]; SA0077, read-out: MIC values) of 2 µg/mL (≈ 4.98 µM), an MIC (S. aureus SA0077 [1]; [17]) of 4 µg/mL (≈ 9.96 µM) and an MIC (S. aureus SA0085 [2]; SA0085, read-out: MIC values) of 8 µg/mL (≈ 19.9 µM). For the same compound, the MIC (S. aureus SA0422 [3]; SA0422, read-out: MIC values) was 2 µg/mL (≈ 4.98 µM), the MIC (S. aureus SA0736 [4]; SA0736, read-out: MIC values) was 2 µg/mL (≈ 4.98 µM) and the MIC (S. aureus SA0736 [4]; SA0736, read-out: MIC values, Table S1: SA0736 DAP-W (40 passages on daptomycin, white colonies)) was 4 µg/mL (≈ 9.96 µM). The MIC (S. aureus SA0736 [4]; [13]) was 4 µg/mL (≈ 9.96 µM) and the MIC (S. aureus ATCC 29213 [5]; [11]) was 0.125 µg/mL (≈ 0.311 µM).

`CN(C)c1cc(NC(=O)CNC(C)(C)C)c(O)c2c1C[C@H]1C[C@H]3[C@H](N(C)C)C(O)=C(C(N)=O)C(=O)[C@@]3(O)C(O)=C1C2=O` [Tigecycline] was tested, and the MIC (S. aureus SA0077 [1]; SA0077, read-out: MIC values) was 0.25 µg/mL (≈ 0.427 µM), the MIC (S. aureus SA0077 [1]; [15]) was 0.06 µg/mL (≈ 0.102 µM) and the MIC (S. aureus SA0077 [1]; [16]) was 0.06 µg/mL (≈ 0.102 µM). For the same compound, the MIC (S. aureus SA0077 [1]; [17]) was 0.06 µg/mL (≈ 0.102 µM), the MIC (S. aureus SA0085 [2]; SA0085, read-out: MIC values) was 0.125 µg/mL (≈ 0.213 µM) and the MIC (S. aureus SA0422 [3]; SA0422, read-out: MIC values) was 0.125 µg/mL (≈ 0.213 µM). For the same compound, the MIC (S. aureus SA0422 [3]; [12]) was 0.06 µg/mL (≈ 0.102 µM), the MIC (S. aureus SA0736 [4]; SA0736, read-out: MIC values) was 0.06 µg/mL (≈ 0.102 µM) and the MIC (S. aureus SA0736 [4]; [13]) was 0.125 µg/mL (≈ 0.213 µM). For the same compound, the MIC (S. aureus ATCC 29213 [5]; [11]) was 0.03 µg/mL (≈ 0.0512 µM), the MIC (S. aureus ATCC 29213 [5]; [14]) was 0.016 µg/mL (≈ 0.0273 µM) and the MIC (S. aureus ATCC 29213 [5]; ATCC29213, read-out: MIC values, Table S1: ATCC 29213 VAN (derivative after 40 passages on vancomycin)) was 0.06 µg/mL (≈ 0.102 µM).
